Reference: ChEMBL document CHEMBL1201862, “PubChem BioAssay data set” (2004)
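The compound was tested at five concentrations on cells cultured in 96-well plates, with a 48-hour exposure period. The concentration for 50% growth inhibition is given as GI50.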 The source made the active and inactive calls. Rule as the data show it: active = GI50 up to about 1.1 µM and inactive = higher. Non-standard residues stand in square brackets, D forms with d. Residues, ends and D or L forms follow the SMILES beside them. *: point of attachment. hSer = N[CH](CCO)C(=O)O; Boc = CC(C)(C)OC(=O)*

Tests used:
Test in all cases: NCI-60 cell line screen, 48 h
786-0 = system: 786-0
A498 = system: A498
A549 = system: A549
ACHN = system: ACHN
BT-549 = system: BT-549
CAKI-1 = system: CAKI-1
CCRF-CEM = system: CCRF-CEM
COLO 205 = system: COLO 205
DU-145 = system: DU-145
EKVX = system: EKVX
HCC 2998 = system: HCC 2998
HCT-116 = system: HCT-116
HCT-15 = system: HCT-15
HL-60 = system: HL-60
HOP-62 = system: HOP-62
HOP-92 = system: HOP-92
HT-29 = system: HT-29
Hs-578T = system: Hs-578T
IGROV-1 = system: IGROV-1
K562 = system: K562
KM12 = system: KM12
LOX IMVI = system: LOX IMVI
M14 = system: M14
MCF7 = system: MCF7
MDA-MB-231 = system: MDA-MB-231
MDA-MB-435 = system: MDA-MB-435
MDA-N = system: MDA-N
MOLT-4 = system: MOLT-4
Malme-3M = system: Malme-3M
NCI-H226 = system: NCI-H226
NCI-H460 = system: NCI-H460
NCI-H522 = system: NCI-H522
NCI/ADR-RES = system: NCI/ADR-RES
OVCAR-3 = system: OVCAR-3
OVCAR-4 = system: OVCAR-4
OVCAR-8 = system: OVCAR-8
PC-3 = system: PC-3
RPMI-8226 = system: RPMI-8226
RXF 393 = system: RXF 393
SF-268 = system: SF-268
SF-295 = system: SF-295
SF-539 = system: SF-539
SK-MEL-28 = system: SK-MEL-28
SK-MEL-2 = system: SK-MEL-2
SK-MEL-5 = system: SK-MEL-5
SK-OV-3 = system: SK-OV-3
SN12C = system: SN12C
SNB-19 = system: SNB-19
SNB-75 = system: SNB-75
SR = system: SR
SW-620 = system: SW-620
T47D = system: T47D
TK-10 = system: TK-10
U-251 = system: U-251
UACC-257 = system: UACC-257
UACC-62 = system: UACC-62
UO-31 = system: UO-31

**Q.** Which GI50 (786-0) does the source give for `COCCC(NC(=O)C(CC(C)C)NC(=O)OC(C)(C)C)C(N)=O` (stereo not drawn) (Boc-Leu-[hSer](Me)-NH2; configuration not given here) here?
**A.** > 100 µM (inactive)

**Q.** And the GI50 (A498)?
**A.** > 100 µM (inactive)

**Q.** What about the GI50 (A549) of the same molecule?
**A.** > 100 µM (inactive)

**Q.** What about the GI50 (ACHN) of the same molecule?
**A.** > 100 µM (inactive)

**Q.** And the GI50 (BT-549)?
**A.** > 100 µM (inactive)

**Q.** And the GI50 (CAKI-1)?
**A.** > 100 µM (inactive)

**Q.** What about the GI50 (CCRF-CEM) of the same molecule?
**A.** > 100 µM (inactive)

**Q.** What about the GI50 (COLO 205) of the same molecule?
**A.** > 100 µM (inactive)

**Q.** And the GI50 (DU-145)?
**A.** > 100 µM (inactive)

**Q.** What about the GI50 (EKVX) of the same molecule?
**A.** > 100 µM (inactive)

**Q.** And the GI50 (HCC 2998)?
**A.** > 100 µM (inactive)

**Q.** And the GI50 (HCT-116)?
**A.** > 100 µM (inactive)

**Q.** And the GI50 (HCT-15)?
**A.** > 100 µM

**Q.** What about the GI50 (HL-60) of the same molecule?
**A.** > 100 µM (inactive)

**Q.** What about the GI50 (HOP-62) of the same molecule?
**A.** > 100 µM (inactive)

**Q.** And the GI50 (HOP-92)?
**A.** > 100 µM (inactive)

**Q.** And the GI50 (HT-29)?
**A.** > 100 µM (inactive)

**Q.** And the GI50 (Hs-578T)?
**A.** > 100 µM (inactive)

**Q.** What about the GI50 (IGROV-1) of the same molecule?
**A.** > 100 µM (inactive)

**Q.** And the GI50 (K562)?
**A.** > 100 µM (inactive)

**Q.** And the GI50 (KM12)?
**A.** > 100 µM (inactive)

**Q.** And the GI50 (LOX IMVI)?
**A.** > 100 µM (inactive)

**Q.** And the GI50 (M14)?
**A.** > 100 µM (inactive)

**Q.** And the GI50 (MCF7)?
**A.** > 100 µM (inactive)

**Q.** What about the GI50 (MDA-MB-231) of the same molecule?
**A.** > 100 µM (inactive)

**Q.** And the GI50 (MDA-MB-435)?
**A.** > 100 µM (inactive)

**Q.** And the GI50 (MDA-N)?
**A.** > 100 µM (inactive)

**Q.** What about the GI50 (MOLT-4) of the same molecule?
**A.** > 100 µM (inactive)

**Q.** And the GI50 (Malme-3M)?
**A.** > 100 µM (inactive)

**Q.** What about the GI50 (NCI-H226) of the same molecule?
**A.** > 100 µM (inactive)

**Q.** What about the GI50 (NCI-H460) of the same molecule?
**A.** > 100 µM (inactive)

**Q.** And the GI50 (NCI-H522)?
**A.** > 100 µM (inactive)

**Q.** What about the GI50 (NCI/ADR-RES) of the same molecule?
**A.** > 100 µM (inactive)

**Q.** And the GI50 (OVCAR-3)?
**A.** > 100 µM (inactive)

**Q.** And the GI50 (OVCAR-4)?
**A.** > 100 µM (inactive)

**Q.** What about the GI50 (OVCAR-8) of the same molecule?
**A.** > 100 µM (inactive)

**Q.** What about the GI50 (PC-3) of the same molecule?
**A.** > 100 µM (inactive)

**Q.** And the GI50 (RPMI-8226)?
**A.** > 100 µM (inactive)

**Q.** What about the GI50 (RXF 393) of the same molecule?
**A.** > 100 µM (inactive)

**Q.** What about the GI50 (SF-268) of the same molecule?
**A.** > 100 µM (inactive)

**Q.** And the GI50 (SF-295)?
**A.** > 100 µM (inactive)

**Q.** What about the GI50 (SF-539) of the same molecule?
**A.** > 100 µM (inactive)

**Q.** And the GI50 (SK-MEL-28)?
**A.** > 100 µM (inactive)

**Q.** What about the GI50 (SK-MEL-2) of the same molecule?
**A.** > 100 µM (inactive)

**Q.** What about the GI50 (SK-MEL-5) of the same molecule?
**A.** > 100 µM (inactive)

**Q.** And the GI50 (SK-OV-3)?
**A.** > 100 µM (inactive)

**Q.** And the GI50 (SN12C)?
**A.** > 100 µM (inactive)

**Q.** And the GI50 (SNB-19)?
**A.** > 100 µM (inactive)

**Q.** And the GI50 (SNB-75)?
**A.** > 100 µM (inactive)

**Q.** And the GI50 (SR)?
**A.** > 100 µM (inactive)

**Q.** And the GI50 (SW-620)?
**A.** > 100 µM (inactive)

**Q.** And the GI50 (T47D)?
**A.** > 100 µM (inactive)

**Q.** And the GI50 (TK-10)?
**A.** > 100 µM (inactive)

**Q.** What about the GI50 (U-251) of the same molecule?
**A.** > 100 µM (inactive)

**Q.** What about the GI50 (UACC-257) of the same molecule?
**A.** > 100 µM (inactive)

**Q.** What about the GI50 (UACC-62) of the same molecule?
**A.** > 100 µM (inactive)

**Q.** And the GI50 (UO-31)?
**A.** > 100 µM (inactive)
